Results: patent US20240239792A1, “MODULATORS OF BCL-2 OR BCL-2/BCL-XL AND USES THEREOF” (APPICINE THERAPEUTICS (HK) LIMITED, priority 2021, published 2024)

What was measured:
BCL-XL = biological target: T1, BCL-XL (Homo sapiens, UniProt Q07817); assay: HTRF BCL-XL/BAK assay (Cisbio); format: binding; settings: recombinant human Tag1-BCL-XL 2 nM, Tag2-BAK 5 nM
T1 construct: purchased Cisbio 63ADK000CB04PEG
Experimental: (§1) Then the pre-mixed anti-Tag1-Eu^3+ and anti-tag2-XL665 were added to the plate and further incubated at room temperature for another 2 hours. The signals ([…]) were read on Envision 2104 instrument. The IC50 for each compound was derived from fitting the signal of 665/615 nM to the increasing compound concentration.
(§2) Using the above assays, the following compounds were tested.

DOHH2 cells = assay: CellTiter-Glo cell proliferation assay, DOHH2 cells; format: cell-based; settings: Homo sapiens, DOHH-2, 72 hours
Method in brief: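 GI50 derived from CellTiter-Glo luminescent viability signal. Cells grown in DMEM with 10% FBS received a compound dilution series for 72 h (37 °C, 5% CO2).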

CYP2C9 = biological target: T2, CYP2C9 (Homo sapiens, UniProt P11712); assay: CYP2C9 activity assay in human liver microsomes, substrate diclofenac; format: in vitro ADME; settings: probe diclofenac, test compound 1 μM, 37° C. 10 min, read-out: Inhibition rate (%) against CYP2C9 Enzyme
T2 construct: from tissue; host or cells: human liver microsomes
Experimental: In this assay, several exemplary compounds of the present disclosure and a control compound (Venetoclax) were used as the test compounds. In general, the assay was conducted by the following steps: • 1. The solution of test compound, human liver microsomes solution, and substrate (diclofenac) solution were mixed in a 96-well assay plate on ice to, and the final concentration of each test compound is 1 μM; • 2. The 96-well assay plate and NADPH solution were pre-incubated at 37° C. for 5 minutes; • 3. NADPH solution was added to into the assay plates to initiate the reaction; • 4. The assay plate was incubated at 37° C. for 10 min; • 5. The reaction was stopped; and after quenching, a portion of the supernatant was taken from each well for LC/MS analysis; • 6. The inhibition rate was calculated by the following equation: Inhibition rate (%)=(1−Valuetest/Valuecontrol)×100%, where Valuetest refers to the LC/MS data obtained from wells with test compounds and Valuecontrol refers to the LC/MS data obtained from wells without test compound.

[1] = tested on: RS4;11 subcutaneous xenograft tumor; assay: In vivo pharmacodynamic study, NOD/SCID RS4;11 subcutaneous xenograft tumor model; set-up: species or system NOD/SCID female mouse; settings: q.d., after 20 days dosing
Experimental: In general, NOD/SCID RS4;11 subcutaneous xenograft tumor model was established by inoculating 5*10^6/0.1 ml/mouse subcutaneously in the right back of the NOD/SCID female mouse. The animals were checked daily for any effects of treatments on behaviors such as mobility, food and water consumption, body weight gain/loss, eyes, hairs and any other abnormalities. Mortality and clinical signs observed during the study were recorded in the raw data. Animal weight and tumor size were measured every two days during the study. Tumor volume (TV) was calculated as: TV=0.5*a*b^2, wherein a and b represent the measured length and width of tumor, respectively. Relative tumor proliferation inhibition rate (TGIRTV (%)), as an indication of anti-tumor effectiveness, was calculated as: TGIRTV (%)=(1−TRTV/CRTV)*100%, wherein TRTV and CRTV were relative tumor volume (RTV) in treatment group and vehicle control group, respectively. RTV was calculated as: RTV=Vt/V0, wherein Vt and V0 represented the tumor volume measured on day t after dosing and on the first day of dosing. At the end of last dosing, plasma and tumor tissue were collected, weighed, and photographed according to requirements of the study protocol.
The TGIRTV(%) values after 20 days dosing were shown in Table 5 below, where “+++” represented TGIRTV(%)≥[…]; “++” represented 30%<TGIRTV(%)<80%. p.o. stands for “per os”; I.P. stands for “intraperitoneal”; q.d. refers to “once daily”.

BCL-2 = biological target: T3, BCL-2 (Homo sapiens, UniProt P10415); assay: HTRF BCL-2/BAK assay (Cisbio); format: binding; settings: recombinant human Tag1-BCL-2 2 nM, Tag2-BAK 10 nM
T3 construct: purchased Cisbio 63ADK000CB01PEG
Experimental: as §1, §2

T3 sequence (P10415 whole entry): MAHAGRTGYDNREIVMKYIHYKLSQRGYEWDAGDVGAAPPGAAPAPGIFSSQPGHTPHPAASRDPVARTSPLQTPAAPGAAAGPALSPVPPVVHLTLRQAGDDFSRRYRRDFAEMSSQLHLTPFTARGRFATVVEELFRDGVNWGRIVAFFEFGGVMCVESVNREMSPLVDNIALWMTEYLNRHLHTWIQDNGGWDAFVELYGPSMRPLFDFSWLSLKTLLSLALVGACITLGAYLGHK
T2 sequence (P11712 whole entry): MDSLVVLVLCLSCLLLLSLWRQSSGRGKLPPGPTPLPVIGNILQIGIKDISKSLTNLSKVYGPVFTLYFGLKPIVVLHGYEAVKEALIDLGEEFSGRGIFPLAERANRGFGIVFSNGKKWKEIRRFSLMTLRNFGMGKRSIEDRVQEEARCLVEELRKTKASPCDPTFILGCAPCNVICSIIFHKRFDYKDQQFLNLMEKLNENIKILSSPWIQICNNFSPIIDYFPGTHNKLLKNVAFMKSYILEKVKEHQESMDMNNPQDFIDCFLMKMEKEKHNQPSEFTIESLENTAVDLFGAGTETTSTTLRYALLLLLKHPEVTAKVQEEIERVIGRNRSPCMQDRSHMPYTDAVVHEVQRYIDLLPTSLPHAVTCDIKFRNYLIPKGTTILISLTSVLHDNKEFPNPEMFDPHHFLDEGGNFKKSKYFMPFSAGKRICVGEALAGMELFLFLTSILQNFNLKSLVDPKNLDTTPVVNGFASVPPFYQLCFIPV
T1 sequence (Q07817 whole entry): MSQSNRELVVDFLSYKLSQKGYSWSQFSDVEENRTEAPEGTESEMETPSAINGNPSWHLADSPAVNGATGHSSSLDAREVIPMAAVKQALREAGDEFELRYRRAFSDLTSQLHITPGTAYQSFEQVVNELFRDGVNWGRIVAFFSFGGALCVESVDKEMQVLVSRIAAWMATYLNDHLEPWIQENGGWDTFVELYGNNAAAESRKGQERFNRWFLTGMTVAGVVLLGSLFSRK

Compound	IC50 (BCL-XL)	GI50 (DOHH2 cells)	inhibition at 10 min, 1 µM (CYP2C9)	TGIRTV(%) ([1]; 50 mg/kg, p.o.)	IC50 (BCL-2)	TGIRTV(%) ([1]; 21 mg/kg, I.P.)	TGIRTV(%) ([1]; 60 mg/kg, p.o.)	TGIRTV(%) ([1]; 25 mg/kg, p.o.)
O=C(NS(=O)(=O)c1ccc(NCC2CC3(CCN(CCF)CC3)C2)c([N+](=O)[O-])c1)c1ccc(N2CCN([C@@H]3CCCCc4c(Cl)cccc43)CC2)cc1Oc1cnc2[nH]ccc2c1 [Compound 114, (R)-2-((1H-pyrrolo[2,3-b]pyridin-5-yl)oxy)-4-(4-(1-chloro-6,7,8,9-tetrahydro-5H-benzo[7]annulen-5-yl)piperazin-1-yl)-N-((4-(((7-(2-fluoroethyl)-7-azaspiro[3.5]nonan-2-yl)methyl)amino)-3-nitrophenyl)sulfonyl)benzamide]	< 20 nM	< 50 nM	< 30%	+++ (TGIRTV(%)≥800)	< 20 nM			
O=C(NS(=O)(=O)c1ccc(NCC2CC3(CCNCC3)C2)c([N+](=O)[O-])c1)c1ccc(N2CCN([C@@H]3CCCCc4c(Cl)cccc43)CC2)cc1Oc1cnc2[nH]ccc2c1 [Compound 104, (R)-2-((1H-pyrrolo[2,3-b]pyridin-5-yl)oxy)-N-((4-(((7-azaspiro[3.5]nonan-2-yl)methyl)amino)-3-nitrophenyl)sulfonyl)-4-(4-(1-chloro-6,7,8,9-tetrahydro-5H-benzo[7]annulen-5-yl)piperazin-1-yl)benzamide]	< 20 nM	< 50 nM	< 30%		< 20 nM	+++ (TGIRTV(%)≥800)		
CN1CCC2(CC1)CC(CNc1ccc(S(=O)(=O)NC(=O)c3ccc(N4CCN([C@@H]5CCCCc6c(Cl)cccc65)CC4)cc3Oc3cnc4[nH]ccc4c3)cc1[N+](=O)[O-])C2 [Compound 108, (R)-2-((1H-pyrrolo[2,3-b]pyridin-5-yl)oxy)-4-(4-(1-chloro-6,7,8,9-tetrahydro-5H-benzo[7]annulen-5-yl)piperazin-1-yl)-N-((4-(((7-methyl-7-azaspiro[3.5]nonan-2-yl)methyl)amino)-3-nitrophenyl)sulfonyl)benzamide]	< 20 nM	< 50 nM	< 30%		< 20 nM			
O=C(NS(=O)(=O)c1ccc(NCC2CC3(CCN(CC(F)F)CC3)C2)c([N+](=O)[O-])c1)c1ccc(N2CCN([C@@H]3CCCCc4c(Cl)cccc43)CC2)cc1Oc1cnc2[nH]ccc2c1 [Compound 113, (R)-2-((1H-pyrrolo[2,3-b]pyridin-5-yl)oxy)-4-(4-(1-chloro-6,7,8,9-tetrahydro-5H-benzo[7]annulen-5-yl)piperazin-1-yl)-N-((4-(((7-(2,2-difluoroethyl)-7-azaspiro[3.5]nonan-2-yl)methyl)amino)-3-nitrophenyl)sulfonyl)benzamide]	20 to 200 nM	< 50 nM	< 30%	+++ (TGIRTV(%)≥800)	< 20 nM			
CC(=O)NCCN1CCC2(CC1)CC(CNc1ccc(S(=O)(=O)NC(=O)c3ccc(N4CCN([C@@H]5CCCCc6c(Cl)cccc65)CC4)cc3Oc3cnc4[nH]ccc4c3)cc1[N+](=O)[O-])C2 [Compound 112, (R)-2-((1H-pyrrolo[2,3-b]pyridin-5-yl)oxy)-N-((4-(((7-(2-acetamidoethyl)-7-azaspiro[3.5]nonan-2-yl)methyl)amino)-3-nitrophenyl)sulfonyl)-4-(4-(1-chloro-6,7,8,9-tetrahydro-5H-benzo[7]annulen-5-yl)piperazin-1-yl)benzamide]	< 20 nM	< 50 nM	33%		< 20 nM			
CS(=O)(=O)N1CCC2(CC1)CC(CNc1ccc(S(=O)(=O)NC(=O)c3ccc(N4CCN([C@@H]5CCCCc6c(Cl)cccc65)CC4)cc3Oc3cnc4[nH]ccc4c3)cc1[N+](=O)[O-])C2 [Compound 107, (R)-2-((1H-pyrrolo[2,3-b]pyridin-5-yl)oxy)-4-(4-(1-chloro-6,7,8,9-tetrahydro-5H-benzo[7]annulen-5-yl)piperazin-1-yl)-N-((4-(((7-(methylsulfonyl)-7-azaspiro[3.5]nonan-2-yl)methyl)amino)-3-nitrophenyl)sulfonyl)benzamide]	20 to 200 nM	< 50 nM	31%		< 20 nM			
O=C(NS(=O)(=O)c1ccc(NCC2CCOCC2)c([N+](=O)[O-])c1)c1ccc(N2CCN([C@@H]3CCCCc4c(Cl)cccc43)CC2)cc1Oc1cnc2[nH]ccc2c1 [Compound 70, (R)-2-((1H-pyrrolo[2,3-b]pyridin-5-yl)oxy)-4-(4-(1-chloro-6,7,8,9-tetrahydro-5H-benzo[7]annulen-5-yl)piperazin-1-yl)-N-((3-nitro-4-(((tetrahydro-2H-pyran-4-yl)methyl)amino)phenyl)sulfonyl)benzamide]		< 50 nM			< 20 nM		+++ (TGIRTV(%)≥800)	
O=C(NS(=O)(=O)c1ccc(NCCN2CCOCC2)c([N+](=O)[O-])c1)c1ccc(N2CCN(C3CCCCc4c(Cl)cccc43)CC2)cc1Oc1cnc2[nH]ccc2c1 (stereo not shown) [Compound 31, 2-((1H-pyrrolo[2,3-b]pyridin-5-yl)oxy)-4-(4-(1-chloro-6,7,8,9-tetrahydro-5H-benzo[7]annulen-5-yl)piperazin-1-yl)-N-((4-((2-morpholinoethyl)amino)-3-nitrophenyl)sulfonyl)benzamide]	20 to 200 nM	< 50 nM			< 20 nM			++ (30%<TGIRTV(%)<80%)
